The results in this text go back to publication PMC8085340, “Inhibiting Pyridoxal Kinase of Entamoeba histolytica Is Lethal for This Pathogen” (Frontiers in Cellular and Infection Microbiology, 2021).

Each structure is given as a SMILES string.

For the assay, the target named is T1, EhPLK (pyridoxal kinase) (Entamoeba histolytica, UniProt C4LVZ4).
T1 construct: gene EHI_126090; recombinant histidine-tagged EhPLK
T1 sequence (C4LVZ4 1-279): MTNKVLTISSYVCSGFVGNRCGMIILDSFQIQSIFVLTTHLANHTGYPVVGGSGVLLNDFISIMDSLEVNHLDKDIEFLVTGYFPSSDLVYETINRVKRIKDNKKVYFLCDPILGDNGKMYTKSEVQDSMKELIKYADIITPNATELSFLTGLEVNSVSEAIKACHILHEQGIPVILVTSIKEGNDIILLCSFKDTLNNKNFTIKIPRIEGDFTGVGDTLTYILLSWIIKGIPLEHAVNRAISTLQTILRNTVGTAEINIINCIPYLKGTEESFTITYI
Briefly: spectrophotometric PLP formation assay at […] nm with purified enzyme; partial inhibition (maximum […]). The assay is classed as biochemical.

What is called IC50 is the midpoint of a concentration-inhibition curve. Read a low IC50 as higher potency. In the case of `O=S1(=O)CCCN1c1ccc(Nc2ncnc3ccsc23)cc1` [compound 1, N-[4-(1,1-dioxo-1,2-thiazolidin-2-yl)phenyl]thieno[3,2-d]pyrimidin-4-amine], the IC50 is ~250 µM. For `O=S1(=O)CCCN1c1ccc(Nc2ncnc3sccc23)cc1` [compound 2, N-[4-(1,1-dioxo-1,2-thiazolidin-2-yl)phenyl]thieno[2,3-d]pyrimidin-4-amine] the value was ~100 µM.
